Laboratory results as given in ChEMBL document CHEMBL5244277, “A review upon medicinal perspective and designing rationale of DPP-4 inhibitors” (Bioorg Med Chem, 2021).

Key:
[1] = molecular target: T1, Dipeptidyl peptidase 4 (Homo sapiens, UniProt P27487)
Target sequence in this assay (P27487 whole entry): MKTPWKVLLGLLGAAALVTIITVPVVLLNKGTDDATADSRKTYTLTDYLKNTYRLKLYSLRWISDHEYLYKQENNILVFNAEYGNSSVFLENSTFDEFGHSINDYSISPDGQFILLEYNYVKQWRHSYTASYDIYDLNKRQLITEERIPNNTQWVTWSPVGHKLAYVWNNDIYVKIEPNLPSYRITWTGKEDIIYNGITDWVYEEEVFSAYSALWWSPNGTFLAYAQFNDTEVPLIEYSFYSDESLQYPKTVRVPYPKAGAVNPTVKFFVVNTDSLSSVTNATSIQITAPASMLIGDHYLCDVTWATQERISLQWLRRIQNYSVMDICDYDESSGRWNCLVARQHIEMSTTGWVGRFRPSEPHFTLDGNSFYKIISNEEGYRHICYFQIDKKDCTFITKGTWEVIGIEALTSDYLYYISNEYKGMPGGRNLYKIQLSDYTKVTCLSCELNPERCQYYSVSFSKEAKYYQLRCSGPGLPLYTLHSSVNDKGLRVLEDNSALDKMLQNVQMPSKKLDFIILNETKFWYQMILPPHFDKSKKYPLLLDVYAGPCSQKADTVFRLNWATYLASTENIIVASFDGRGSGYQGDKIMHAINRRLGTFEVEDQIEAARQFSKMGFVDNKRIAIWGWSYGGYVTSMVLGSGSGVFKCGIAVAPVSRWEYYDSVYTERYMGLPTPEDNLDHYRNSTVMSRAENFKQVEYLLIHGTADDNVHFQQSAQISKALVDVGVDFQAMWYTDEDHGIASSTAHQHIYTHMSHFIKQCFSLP

[2] = Bioavailability in rat; type: ADME, organism-based; conditions: in vivo
[3] = Bioavailability in dog; type: ADME, organism-based, Canis lupus familiaris; conditions: in vivo
[4] = Bioavailability in monkey; type: ADME, organism-based, Macaca mulatta; conditions: rhesus monkey, in vivo
[5] = test system: Mus musculus; experiment: Hypoglycemic activity in KKAy mouse assessed as reduction in blood glucose level at 30 mg/kg; type: ADME, organism-based; parameters: scale not given: the % may be the effect or the level left; conditions: in vivo
[6] = test system: Mus musculus; experiment: Hypoglycemic activity in KKAy mouse assessed as reduction in blood glucose level at 3 mg/kg; type: ADME, organism-based; parameters: scale not given: the % may be the effect or the level left; conditions: in vivo
[7] = species on record: Homo sapiens; experiment: Selectivity index, ratio of IC50 for DPP-8 (unknown origin) to IC50 for DPP-4 (unknown origin)
[8] = species on record: Homo sapiens; experiment: Selectivity index, ratio of IC50 for DPP-9 (unknown origin) to IC50 for DPP-4 (unknown origin)
[9] = test system: Mus musculus; experiment: Hypoglycemic activity in C57BL/6J mouse assessed as reduction in blood glucose level at 5 mg/kg, iv measured for 180 mins; type: ADME, organism-based; parameters: scale not given: the % may be the effect or the level left; conditions: in vivo, 3 h
[10] = test system: Mus musculus; experiment: Hypoglycemic activity in C57BL/6J mouse assessed as reduction in blood glucose level at 10 mg/kg, iv measured for 180 mins; type: ADME, organism-based; parameters: scale not given: the % may be the effect or the level left; conditions: in vivo, 3 h
[11] = test system: Mus musculus; experiment: Hypoglycemic activity in C57BL/6J mouse assessed as reduction in blood glucose level at 20 mg/kg, iv measured for 180 mins; type: ADME, organism-based; parameters: scale not given: the % may be the effect or the level left; conditions: in vivo, 3 h
[12] = Half life in Sprague-Dawley rat at 3 mg/kg, po; type: ADME, organism-based; conditions: in vivo
[13] = molecular target: T1, Dipeptidyl peptidase 4; experiment: Inhibition of DPP-4 (unknown origin) using (H-Gly-Pro-AMC) as substrate
Target sequence in this assay (P27487 whole entry): as above

[14] = test system: Mus musculus; experiment: Antidiabetic activity in C57BL/6J mouse assessed as decrease in AUC of glucose at 3 mg/kg, po; type: functional; parameters: scale not given: the % may be the effect or the level left
[15] = test system: Mus musculus; experiment: Hypoglycemic activity in C57BL/6J mouse assessed as reduction in blood glucose level at 3 mg/kg, iv measured for 180 mins; type: ADME, organism-based; parameters: scale not given: the % may be the effect or the level left; conditions: in vivo, 3 h
[16] = test system: Rattus norvegicus; experiment: Antihyperglycemic activity in STZ-induced diabetic rat model assessed as reduction in blood glucose level at 100 mg/kg, po measured upto 24 hrs; type: functional; parameters: scale not given: the % may be the effect or the level left
[17] = molecular target: T1, Dipeptidyl peptidase 4; experiment: Inhibition of human recombinant DPP-4 using H-Gly-Pro-aminomethylcoumarin as substrate
Target sequence in this assay (P27487 whole entry): as above

[18] = molecular target: T1, Dipeptidyl peptidase 4; experiment: Inhibition of human recombinant DPP-4 using H-Gly-Pro-aminomethylcoumarin as substrate at 100 uM relative to control
Target sequence in this assay (P27487 whole entry, looked up): as the sequence (P27487 whole entry) above

[19] = species on record: Homo sapiens; experiment: Selectivity index, ratio of IC50 for human recombinant DPP-4 to IC50 for human recombinant DPP-8
[20] = species on record: Homo sapiens; experiment: Selectivity index, ratio of IC50 for human recombinant DPP-4 to IC50 for human recombinant DPP-9
[21] = test system: Mus musculus; experiment: Hypoglycemic activity in ICR mouse assessed as reduction in blood glucose level at 30 mg/kg measured at 120 mins; type: ADME, organism-based; parameters: scale not given: the % may be the effect or the level left; conditions: in vivo, 2 h
[22] = test system: Mus musculus; experiment: Hypoglycemic activity in ICR mouse assessed as reduction in blood glucose level at 3 mg/kg measured at 120 mins; type: ADME, organism-based; parameters: scale not given: the % may be the effect or the level left; conditions: in vivo, 2 h
[23] = Metabolic stability in human liver microsomes assessed as intrinsic clearance; type: ADME, Microsome; conditions: read-out: CLH
[24] = Tmax in ICR mouse at 1 to 10 mg/kg, po; type: ADME, organism-based; conditions: in vivo, dose 1-10 mg/kg
[25] = Cmax in ICR mouse at 1 to 10 mg/kg, po; type: ADME, organism-based; parameters: route po; conditions: in vivo, dose 1-10 mg/kg
[26] = MRT in ICR mouse at 1 to 10 mg/kg, po; type: ADME, organism-based; conditions: in vivo, dose 1-10 mg/kg
[27] = Half life in ICR mouse at 1 to 10 mg/kg, po; type: ADME, organism-based; conditions: in vivo, dose 1-10 mg/kg
[28] = molecular target: Dipeptidyl peptidase 8 (Homo sapiens, UniProt Q6V1X1); experiment: Inhibition of human recombinant DPP-8
Sequence of Dipeptidyl peptidase 8 (Q6V1X1 whole entry): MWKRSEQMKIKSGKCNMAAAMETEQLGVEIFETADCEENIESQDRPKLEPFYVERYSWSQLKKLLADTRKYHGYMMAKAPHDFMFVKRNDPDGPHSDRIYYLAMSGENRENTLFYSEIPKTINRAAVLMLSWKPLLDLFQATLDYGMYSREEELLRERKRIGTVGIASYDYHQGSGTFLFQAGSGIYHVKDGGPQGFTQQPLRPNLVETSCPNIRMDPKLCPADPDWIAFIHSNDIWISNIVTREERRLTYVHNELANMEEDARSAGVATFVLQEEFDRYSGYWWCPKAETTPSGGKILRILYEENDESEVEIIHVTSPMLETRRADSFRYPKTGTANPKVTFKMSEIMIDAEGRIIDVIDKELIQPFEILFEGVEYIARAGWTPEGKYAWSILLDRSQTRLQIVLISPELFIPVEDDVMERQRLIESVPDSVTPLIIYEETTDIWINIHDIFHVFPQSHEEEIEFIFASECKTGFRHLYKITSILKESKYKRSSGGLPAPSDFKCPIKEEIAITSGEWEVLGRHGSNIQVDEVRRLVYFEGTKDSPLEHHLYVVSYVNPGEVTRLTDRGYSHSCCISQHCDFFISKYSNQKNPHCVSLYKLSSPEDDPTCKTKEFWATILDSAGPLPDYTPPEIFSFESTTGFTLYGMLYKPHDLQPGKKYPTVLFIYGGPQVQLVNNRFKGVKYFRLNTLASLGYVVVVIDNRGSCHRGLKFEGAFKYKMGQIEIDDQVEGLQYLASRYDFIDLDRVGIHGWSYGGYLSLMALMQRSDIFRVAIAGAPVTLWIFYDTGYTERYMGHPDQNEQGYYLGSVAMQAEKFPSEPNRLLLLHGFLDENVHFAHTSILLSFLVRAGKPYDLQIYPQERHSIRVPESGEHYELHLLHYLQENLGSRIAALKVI

[29] = molecular target: Dipeptidyl peptidase 9 (Homo sapiens, UniProt Q86TI2); experiment: Inhibition of human recombinant DPP-9
Sequence of Dipeptidyl peptidase 9 (Q86TI2 whole entry): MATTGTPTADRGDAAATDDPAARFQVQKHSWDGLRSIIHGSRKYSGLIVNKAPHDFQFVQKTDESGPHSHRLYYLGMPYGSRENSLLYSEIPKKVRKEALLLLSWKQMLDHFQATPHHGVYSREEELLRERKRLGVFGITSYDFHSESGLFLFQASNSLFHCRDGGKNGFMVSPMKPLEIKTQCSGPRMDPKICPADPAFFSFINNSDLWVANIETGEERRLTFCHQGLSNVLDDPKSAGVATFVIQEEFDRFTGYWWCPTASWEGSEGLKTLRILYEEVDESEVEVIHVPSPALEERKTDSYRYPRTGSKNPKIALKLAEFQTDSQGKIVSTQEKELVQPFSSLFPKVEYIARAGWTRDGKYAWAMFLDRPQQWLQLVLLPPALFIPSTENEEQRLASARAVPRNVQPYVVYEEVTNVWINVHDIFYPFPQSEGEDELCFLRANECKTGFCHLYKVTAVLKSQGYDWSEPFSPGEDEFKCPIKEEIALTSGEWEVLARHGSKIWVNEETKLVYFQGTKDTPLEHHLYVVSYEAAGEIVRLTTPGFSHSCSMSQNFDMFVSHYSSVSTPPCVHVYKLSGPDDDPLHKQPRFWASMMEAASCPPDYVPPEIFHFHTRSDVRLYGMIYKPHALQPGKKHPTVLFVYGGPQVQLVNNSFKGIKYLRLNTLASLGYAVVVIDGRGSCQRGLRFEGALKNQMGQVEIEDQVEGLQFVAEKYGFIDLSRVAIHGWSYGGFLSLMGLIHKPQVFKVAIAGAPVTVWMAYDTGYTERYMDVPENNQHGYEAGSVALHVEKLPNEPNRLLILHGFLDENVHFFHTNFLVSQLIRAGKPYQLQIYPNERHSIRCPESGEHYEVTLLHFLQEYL

[30] = Cytotoxicity against human L02 cells assessed as cell viability after 72 hrs by MTT assay; type: toxicity, cell-based; conditions: read-out: Activity
[31] = Metabolic stability in rat plasma assessed as parent compound remaining; type: ADME, cell-free
[32] = Metabolic stability in rat liver microsome assessed as parent compound remaining; type: ADME; conditions: microsomes
[33] = test system: Mus musculus; experiment: Hypoglycemic activity in mouse assessed as reduction in blood glucose level at 10 mg/kg measured after 120 mins; type: ADME, organism-based; parameters: scale not given: the % may be the effect or the level left; conditions: in vivo, 2 h
[34] = Clearance in mouse at 3 to 10 mg/kg, iv; type: ADME, organism-based; conditions: in vivo, dose 3-10 mg/kg
[35] = Half life in mouse at 3 to 10 mg/kg, iv; type: ADME, organism-based; conditions: in vivo, dose 3-10 mg/kg
[36] = Biovailability in mouse at 3 to 10 mg/kg, iv; type: ADME, organism-based; conditions: in vivo, dose 3-10 mg/kg

## CC1c2nnc(C(F)(F)F)n2CCN1C(=O)C[C@H](N)Cc1cc(F)c(F)cc1F.Cl (some centres not stated)
[1]
  IC50: 4.3 nM
[2]
  bioavailability: 57%
[3]
  bioavailability: 91%
[4]
  bioavailability: 87%

## N#C[C@@H]1CCCN1C(=O)CNC1C[C@H]2CC(O)C[C@H]2C1 (some centres not stated)
[5]
  Activity: 52.2%
[6]
  Activity: 61.9%

## Brc1nc2n(n1)CC(c1cc3ccccc3o1)=NN2
[1]
  IC50: 28500 nM
[7]
  Ratio IC50: 8
[8]
  Ratio IC50: 8
[9]
  Activity: 19.6%
[10]
  Activity: 33.6%
[11]
  Activity: 47.1%

## N#C[C@@H]1C[C@H]2[C@H](CC2(F)F)N1C(=O)[C@@H](N)C12CC3CC(CC(O)(C3)C1)C2
[12]
  half-life: 0.92 h

## Cc1ccc2cc(CNc3nc(C)cs3)n(/N=C/c3ccc(O)cc3)c(=O)c2c1
[13]
  IC50: 1.12 nM

## N[C@@H](CC(=O)N1CCn2c(nnc2C(F)(F)F)C1)Cc1cc(F)c(F)cc1F [SITAGLIPTIN]
[14]
  Activity: 17.9%
[15]
  Activity: 27.8%
[16]
  Activity: 31.9%

## NCc1c(-c2ccc(Cl)cc2Cl)nc2ccccn12
[17]
  IC50: 130 nM
[18]
  inhibition: 75%
[19]
  Ratio IC50: 215
[20]
  Ratio IC50: 192
[21]
  Activity: 33.53%
[22]
  Activity: 35%

## N[C@@H](CCNC(=O)N1CCn2c(nnc2C(F)(F)F)C1)Cc1cc(F)c(F)cc1F
[23]
  CLint scaled: < 100 mL/min/kg
[24]
  Tmax: 2 h
[25]
  Cmax: 719 ng/mL
[26]
  MRT: 2.72 h
[27]
  half-life: 1.03 h

## CC#CCn1c(N2CCC[C@@H](N)C2)cc(=O)n(Cc2ccc(Cl)c(C(=O)N(C)C)c2)c1=O
[28]
  IC50: > 100000 nM
[29]
  IC50: > 100000 nM
[30]
  viability at 72 h: 100%
[31]
  Stability: 99.38%
[32]
  Stability: 101.83%
[33]
  Activity: 16.4%
[34]
  clearance: 5.83 mL/min/kg
[35]
  half-life: 11.1 h
[36]
  bioavailability: 27.3%
